Source: patent publication US8575201B2 (Boehringer Ingelheim International GmbH, priority 2010, dated 2013)

What was measured:
[1] = target: recombinant human FLAP protein (Homo sapiens (Human), UniProt P20292); assay: FLAP binding assay (Scintillation Proximity Assay, displacement of [125I]L-691,831); settings: read-out: FLAP SPA IC50
Protocol: Assessment of Biological Properties 1. Binding Assay: Compounds are assessed for the ability to bind to FLAP in a binding assay that measures compound-specific displacement of an iodinated (^125I) FLAP inhibitor via a Scintillation Proximity Assay format (adapted from S. Charleson et al., Mol. Pharmacol., 1992, 41, 873-879). […] The cells are lysed with a Dounce homogenizer and the material is centrifuged at 10,000×g for 10 minutes. The supernatant is then collected and centrifuged at 100,000×g for 60 minutes. To prepare membrane protein for an assay, an aliquot of the 100,000×g pellet is resuspended in 1 ml of buffer A, Dounce homogenized, and finally subjected to polytron mixing (30 seconds). […] Mol. Pharmacol., 41, 873-879, 1992) and finally 50 μl of the bead/protein mixture. (final concentrations: beads, 200 μg/well; protein, 5 μg/well; […] The plates are shaken for 2 h before reading on a Microbeta plate reader.

[2] = system: synthesis of LTB4 in human whole blood; assay: Human whole blood LTB4 production inhibition assay; type: cell-based; settings: calcimycin stimulated, read-out: hWB LTB4 IC50
Protocol: Compounds are additionally tested in a human whole blood assay to determine their ability to inhibit the synthesis of LTB4 in a cellular system. Compounds are combined with heparinized human whole blood and incubated for 15 minutes at 37° C. Calcimycin (20 μM final, prepared in phosphate-buffered saline, pH 7.4) is then added and the mixture is incubated for another 30 minutes at 37° C. The samples are centrifuged for 5 min at low speed (1500×g) and the plasma layer is removed. Plasma LTB4 concentrations are then measured using an antibody-based homogenous time-resolved fluorescence method (CisBio, Bedford, Mass.).

recombinant human FLAP protein, sequence (P20292 whole entry): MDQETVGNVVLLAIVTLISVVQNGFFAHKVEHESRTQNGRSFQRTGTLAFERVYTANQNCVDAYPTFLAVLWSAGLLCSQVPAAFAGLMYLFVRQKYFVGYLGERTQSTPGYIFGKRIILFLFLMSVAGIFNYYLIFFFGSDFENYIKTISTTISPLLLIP

Compound	IC50 [1]	IC50 [2]
5-(6-{1-[5-(3-methyl- 1H-pyrazol-4-yl)-1,2,4- oxadiazol-3- yl]cyclobutyl}pyridin-3- yl)pyrimidin-2-amine [Example 135]	27 nM	400 nM
CC(C)(C)OC(=O)N1CCN(c2ccc(-c3nc(C4(c5ccc(-c6cnc(N)nc6)nc5)CCC4)no3)cn2)CC1 [Example 1, tert-butyl 4-[5-(3-{1-[6-(2-aminopyrimidin-5-yl)pyridin-3-yl]cyclobutyl}-1,2,4-oxadiazol-5-yl)pyridin-2-yl]piperazine-1-carboxylate]	3.8 nM	280 nM
NC(=O)CNc1ccc(-c2nc(C3(c4ccc(-c5cnc(N)nc5)nc4)CCC3)no2)cn1 [Example 2, N-2-[5-(3-{1-[6-(2-aminopyrimidin-5-yl)pyridin-3-yl]cyclobutyl}-1,2,4-oxadiazol-5-yl)pyridin-2-yl]glycinamide]	5 nM	740 nM
Nc1ncc(-c2ccc(C3(c4noc(-c5ccc(N6CCNCC6)nc5)n4)CCC3)cn2)cn1 [Example 3, 5-[5-(1-{5-[6-(piperazin-1-yl)pyridin-3-yl]-1,2,4-oxadiazol-3-yl}cyclobutyl)pyridin-2-yl]pyrimidin-2-amine]	2.7 nM	150 nM
Nc1ncc(-c2ccc(C3(c4noc(-c5cc[nH]n5)n4)CCC3)cn2)cn1 [Example 4, 5-(5-{1-[5-(1H-pyrazol-3-yl)-1,2,4-oxadiazol-3-yl]cyclobutyl}pyridin-2-yl)pyrimidin-2-amine]	17 nM	430 nM
Cc1cccc(-c2nc(C3(c4ccc(-c5cnc(N)nc5)nc4)CCC3)no2)c1 [Example 5, 5-(5-{1-[5-(3-methylphenyl)-1,2,4-oxadiazol-3-yl]cyclobutyl}pyridin-2-yl)pyrimidin-2-amine]	8.8 nM	1100 nM
Cc1ccc(-c2nc(C3(c4ccc(-c5cnc(N)nc5)nc4)CCC3)no2)cc1 [Example 6, 5-(5-{1-[5-(4-methylphenyl)-1,2,4-oxadiazol-3-yl]cyclobutyl}pyridin-2-yl)pyrimidin-2-amine]	5.8 nM	830 nM
CS(=O)(=O)c1ccc(-c2nc(C3(c4ccc(-c5cnc(N)nc5)nc4)CCC3)no2)cc1 [Example 7, 5-[5-(1-{5-[4-(methylsulfonyl)phenyl]-1,2,4-oxadiazol-3-yl}cyclobutyl)pyridin-2-yl]pyrimidin-2-amine]	11 nM	690 nM
CCNc1ccc(-c2nc(C3(c4ccc(-c5cnc(N)nc5)nc4)CCC3)no2)cn1 [Example 8, 5-[5-(1-{5-[6-(ethylamino)pyridin-3-yl]-1,2,4-oxadiazol-3-yl}cyclobutyl)pyridin-2-yl]pyrimidin-2-amine]	2 nM	110 nM
Nc1ncc(-c2ccc(C3(c4noc(-c5ccc(NC6CC6)nc5)n4)CCC3)cn2)cn1 [Example 9, 5-[5-(1-{5-[6-(cyclopropylamino)pyridin-3-yl]-1,2,4-oxadiazol-3-yl}cyclobutyl)pyridin-2-yl]pyrimidin-2-amine]	2.9 nM	320 nM
Nc1ncc(-c2ccc(C3(c4noc(-c5cc(N)[nH]n5)n4)CCC3)cn2)cn1 [Example 10, 5-(5-{1-[5-(5-amino-1H-pyrazol-3-yl)-1,2,4-oxadiazol-3-yl]cyclobutyl}pyridin-2-yl)pyrimidin-2-amine]	30 nM	650 nM
CS(=O)(=O)c1cccc(-c2nc(C3(c4ccc(-c5cnc(N)nc5)nc4)CCC3)no2)c1 [Example 11, 5-[5-(1-{5-[3-(methylsulfonyl)phenyl]-1,2,4-oxadiazol-3-yl}cyclobutyl)pyridin-2-yl]pyrimidin-2-amine]	78 nM	2200 nM
COCCn1cc(-c2nc(C3(c4ccc(-c5cnc(N)nc5)nc4)CCC3)no2)cn1 [Example 28, 5-[5-(1-{5-[1-(2-methoxyethyl)-1H-pyrazol-4-yl]-1,2,4-oxadiazol-3-yl}cyclobutyl)pyridin-2-yl]pyrimidin-2-amine]		210 nM
COC(=O)[C@@H]1CN(c2ccc(-c3nc(C4(c5ccc(-c6cnc(N)nc6)nc5)CCC4)no3)cn2)CCN1 [Example 39, methyl (2S)-[5-(3-{1-[6-(2-aminopyrimidin-5-yl)pyridin-3-yl]cyclobutyl}-1,2,4-oxadiazol-5-yl)pyridin-2-yl]piperazine-2-carboxylate]		86 nM
COCCNc1cnc(-c2nc(C3(c4ccc(-c5cnc(N)nc5)nc4)CCC3)no2)cn1 [Example 56, 5-{5-[1-(5-{5-[(2-methoxyethyl)amino]pyrazin-2-yl}-1,2,4-oxadiazol-3-yl)cyclobutyl]pyridin-2-yl}pyrimidin-2-amine]		24 nM
CCNc1cnc(-c2nc(C3(c4ccc(-c5cnc(N)nc5)nc4)CCC3)no2)cn1 [Example 57, 5-[5-(1-{5-[5-(ethylamino)pyrazin-2-yl]-1,2,4-oxadiazol-3-yl}cyclobutyl)pyridin-2-yl]pyrimidin-2-amine]		34 nM
CN1CCN(c2cnc(-c3nc(C4(c5ccc(-c6cnc(N)nc6)nc5)CCC4)no3)cn2)CC1 [Example 61, 5-[5-(1-{5-[5-(4-methylpiperazin-1-yl)pyrazin-2-yl]-1,2,4-oxadiazol-3-yl}cyclobutyl)pyridin-2-yl]pyrimidin-2-amine]		41 nM
Nc1ncc(-c2ccc(C3(c4noc(-c5ccc6[nH]ncc6c5)n4)CCC3)cn2)cn1 [Example 79, 5-(5-{1-[5-(1H-indazol-5-yl)-1,2,4-oxadiazol-3-yl]cyclobutyl}pyridin-2-yl)pyrimidin-2-amine]		68 nM
CC(C)(C)NC(=O)Cn1cc(-c2nc(C3(c4ccc(-c5cnc(N)nc5)nc4)CCC3)no2)cn1 [Example 144, 2-[4-(3-{1-[6-(2-aminopyrimidin-5-yl)pyridin-3-yl]cyclobutyl}-1,2,4-oxadiazol-5-yl)-1H-pyrazol-1-yl]-N-tert-butylacetamide]		190 nM
CCNC(=O)Cn1cc(-c2nc(C3(c4ccc(-c5cnc(N)nc5)nc4)CCC3)no2)cn1 [Example 158, 2-[4-(3-{1-[6-(2-amino-pyrimidin-5-yl)-pyridin-3-yl]-cyclobutyl}-[1,2,4]oxadiazol-5-yl)-pyrazol-1-yl]-N-ethyl-acetamide]		550 nM
Cc1nc(N)cnc1-c1ccc(C2(c3noc(-c4cnn(C5COC5)c4)n3)CCC2)cn1 [Example 169, 6-Methyl-5-(5-{1-[5-(1-oxetan-3-yl-1H-pyrazol-4-yl)-[1,2,4]oxadiazol-3-yl]-cyclobutyl}-pyridin-2-yl)-pyrazin-2-ylamine]		21 nM
N#CCn1cc(-c2nc(C3(c4ccc(-c5cnc(N)cn5)nc4)CCC3)no2)cn1 [Example 170, [4-(3-{1-[6-(5-Amino-pyrazin-2-yl)-pyridin-3-yl]-cyclobutyl}-[1,2,4]oxadiazol-5-yl)-pyrazol-1-yl]-acetonitrile]		51 nM
Cc1nc(N)cnc1-c1ccc(C2(c3noc(-c4cnn(CC(C)(C)O)c4)n3)CCC2)cn1 [Example 172, 1-[4-(3-{1-[6-(5-Amino-3-methyl-pyrazin-2-yl)-pyridin-3-yl]-cyclobutyl}-[1,2,4]oxadiazol-5-yl)-pyrazol-1-yl]-2-methyl-propan-2-ol]		51 nM
CNc1cnc(-c2ccc(C3(c4noc(-c5cnn(CC#N)c5)n4)CCC3)cn2)cn1 [Example 173, [4-(3-{1-[6-(5-Methylamino-pyrazin-2-yl)-pyridin-3-yl]-cyclobutyl}-[1,2,4]oxadiazol-5-yl)-pyrazol-1-yl]-acetonitrile]		18 nM
